Reference: PubChem BioAssay (NCI)
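Dose response: 5 concentrations. Exposure: 48 h. Format: 96-well plates. Endpoint: linear interpolation; highest concentration if not reached. TGI: total growth inhibition.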

Columns and labels:
Test in all cases: NCI tumour cell line growth inhibition, 48 h
[1] = tested on: HCT-116 colon
[2] = tested on: BT-549 breast
[3] = tested on: OVCAR-4 ovarian
[4] = tested on: PC-3 prostate
[5] = tested on: SK-MEL-28 melanoma
[6] = tested on: SNB-78 CNS
[7] = tested on: UO-31 renal
[8] = tested on: 786-0 renal
[9] = tested on: A549 NSCLC
[10] = tested on: KM20L2 colon
[11] = tested on: UACC-62 melanoma
[12] = tested on: MCF7 breast
[13] = tested on: M19-MEL melanoma
[14] = tested on: DU-145 prostate
[15] = tested on: T-47D breast
[16] = tested on: NCI-H226 lung
[17] = tested on: OVCAR-5 ovarian
[18] = tested on: DMS 273 small cell lung
[19] = tested on: ACHN renal
[20] = tested on: HT29 colon
[21] = tested on: OVCAR-8 ovarian
[22] = tested on: XF 498 CNS
[23] = tested on: SR leukemia
[24] = tested on: SN12C renal
[25] = tested on: COLO 205 colon
[26] = tested on: SNB-75 CNS
[27] = tested on: SW-620 colon
[28] = tested on: CCRF-CEM leukemia
[29] = tested on: SK-MEL-5 melanoma
[30] = tested on: K-562 leukemia
[31] = tested on: HOP-62 NSCLC
[32] = tested on: MDA-MB-231 breast
[33] = tested on: HCT-15 colon
[34] = tested on: SK-OV-3 ovarian
[35] = tested on: KM12 colon
[36] = tested on: EKVX NSCLC
[37] = tested on: SF-268 CNS
[38] = tested on: U251 CNS
[39] = tested on: DMS 114 small cell lung
[40] = tested on: TK-10 renal
[41] = tested on: NCI-H23 lung
[42] = tested on: SF-295 CNS
[43] = tested on: HOP-92 NSCLC
[44] = tested on: OVCAR-3 ovarian
[45] = tested on: IGROV1 ovarian
[46] = tested on: DLD-1 colon
[47] = tested on: LXFL 529 NSCLC
[48] = tested on: LOX IMVI melanoma
[49] = tested on: MDA-MB-435
[50] = tested on: M14 melanoma
[51] = tested on: SNB-19 CNS
[52] = tested on: MOLT-4 leukemia
[53] = tested on: HCC-2998 colon
[54] = tested on: MDA-N
[55] = tested on: NCI-H460 lung
[56] = tested on: HOP-18 NSCLC
[57] = tested on: MALME-3M melanoma
[58] = tested on: A498 renal
[59] = tested on: CAKI-1 renal
[60] = tested on: RXF-631 renal
[61] = tested on: HL-60(TB) leukemia
[62] = tested on: NCI-H522 lung
[63] = tested on: UACC-257 melanoma
[64] = tested on: SK-MEL-2 melanoma
[65] = tested on: RPMI-8226 leukemia
[66] = tested on: HS 578T breast
[67] = tested on: RXF 393 renal
[68] = tested on: SF-539 CNS

How did the TGI [1] turn out when `CC(=O)OC1CC[C@@]2(C)C(CC[C@]3(C)C2CC=C2[C@@H]4CC(C)(C)CCC4(C)CCC23C)[C@@]1(C)C(=O)O` (stereo not given in full) was run?
Its TGI is 46.9 µM.

What about the TGI [2] of the same molecule?
Its TGI is 50.1 µM.

What about the TGI [3] of the same molecule?
Its TGI is 40.2 µM.

What about the TGI [4] of the same molecule?
Its TGI is 23.1 µM.

What about the TGI [5] of the same molecule?
Its TGI is 46.5 µM.

What about the TGI [6] of the same molecule?
Its TGI is 48.8 µM.

And the TGI [7]?
The TGI was 35.9 µM.

What about the TGI [8] of the same molecule?
Its TGI is 45.9 µM.

What about the TGI [9] of the same molecule?
The TGI was 33.9 µM.

What about the TGI [10] of the same molecule?
The TGI was 36.7 µM.

What about the TGI [11] of the same molecule?
Its TGI is 36.6 µM.

What about the TGI [12] of the same molecule?
The TGI was 40.1 µM.

And the TGI [13]?
Its TGI is 54 µM.

What about the TGI [14] of the same molecule?
The TGI was 46 µM.

What about the TGI [15] of the same molecule?
Its TGI is 44.9 µM.

What about the TGI [16] of the same molecule?
Its TGI is 50.2 µM.

And the TGI [17]?
Its TGI is 47.5 µM.

And the TGI [18]?
Its TGI is 55.5 µM.

What about the TGI [19] of the same molecule?
The TGI was 30.7 µM.

And the TGI [20]?
The TGI was 38.9 µM.

What about the TGI [21] of the same molecule?
Its TGI is 36.9 µM.

And the TGI [22]?
Its TGI is 50.9 µM.

And the TGI [23]?
The TGI was > 78.3 µM.

What about the TGI [24] of the same molecule?
Its TGI is 41.3 µM.

And the TGI [25]?
The TGI was 48.5 µM.

And the TGI [26]?
Its TGI is 48.9 µM.

And the TGI [27]?
Its TGI is 40.8 µM.

And the TGI [28]?
The TGI was > 87.9 µM.

What about the TGI [29] of the same molecule?
The TGI was 47.9 µM.

And the TGI [30]?
The TGI was 61.9 µM.

And the TGI [31]?
Its TGI is 42 µM.

What about the TGI [32] of the same molecule?
Its TGI is 44.2 µM.

What about the TGI [33] of the same molecule?
Its TGI is 28.5 µM.

What about the TGI [34] of the same molecule?
The TGI was 31.2 µM.

What about the TGI [35] of the same molecule?
The TGI was 52.3 µM.

What about the TGI [36] of the same molecule?
The TGI was 39.5 µM.

What about the TGI [37] of the same molecule?
The TGI was 46.7 µM.

What about the TGI [38] of the same molecule?
Its TGI is 32 µM.

And the TGI [39]?
The TGI was 40.2 µM.

And the TGI [40]?
The TGI was 51.8 µM.

And the TGI [41]?
The TGI was 43.9 µM.

And the TGI [42]?
The TGI was 51.3 µM.

What about the TGI [43] of the same molecule?
The TGI was 49.9 µM.

What about the TGI [44] of the same molecule?
The TGI was 37.7 µM.

What about the TGI [45] of the same molecule?
Its TGI is 38.6 µM.

What about the TGI [46] of the same molecule?
The TGI was 29.3 µM.

What about the TGI [47] of the same molecule?
Its TGI is 32.9 µM.

What about the TGI [48] of the same molecule?
Its TGI is 50.1 µM.

What about the TGI [49] of the same molecule?
Its TGI is 44.1 µM.

And the TGI [50]?
Its TGI is 46.5 µM.

And the TGI [51]?
Its TGI is 47.3 µM.

And the TGI [52]?
The TGI was 47.3 µM.

And the TGI [53]?
The TGI was 35.8 µM.

What about the TGI [54] of the same molecule?
The TGI was 64.8 µM.

What about the TGI [55] of the same molecule?
Its TGI is 37 µM.

And the TGI [56]?
Its TGI is 43.7 µM.

And the TGI [57]?
Its TGI is 47.1 µM.

And the TGI [58]?
The TGI was 39.3 µM.

And the TGI [59]?
The TGI was 38.5 µM.

And the TGI [60]?
The TGI was 44.7 µM.

And the TGI [61]?
Its TGI is 83.5 µM.

What about the TGI [62] of the same molecule?
Its TGI is 22.6 µM.

What about the TGI [63] of the same molecule?
The TGI was 43.3 µM.

What about the TGI [64] of the same molecule?
The TGI was 38.6 µM.

And the TGI [65]?
The TGI was 58.1 µM.

What about the TGI [66] of the same molecule?
Its TGI is 45.3 µM.

And the TGI [67]?
Its TGI is 36.9 µM.

And the TGI [68]?
Its TGI is 50.7 µM.

How did the TGI [1] turn out when `CCCCCCCCC(O)C#CC(N)=O` (stereo not given) was run?
Its TGI is 16.6 µM.

And the TGI [3]?
The TGI was 12 µM.

And the TGI [5]?
The TGI was 31.8 µM.

And the TGI [6]?
Its TGI is 57.5 µM.

What about the TGI [7] of the same molecule?
Its TGI is 21.6 µM.

And the TGI [8]?
Its TGI is 25.3 µM.

And the TGI [9]?
The TGI was 36.2 µM.

And the TGI [10]?
The TGI was 35.1 µM.

And the TGI [11]?
Its TGI is 19.9 µM.

What about the TGI [13] of the same molecule?
The TGI was 24.4 µM.

What about the TGI [16] of the same molecule?
Its TGI is 25.6 µM.

What about the TGI [17] of the same molecule?
The TGI was 43.9 µM.

And the TGI [18]?
The TGI was 20.3 µM.

What about the TGI [19] of the same molecule?
Its TGI is 31 µM.

And the TGI [20]?
Its TGI is 24.5 µM.

And the TGI [21]?
The TGI was 21.4 µM.

What about the TGI [22] of the same molecule?
Its TGI is 30.8 µM.

What about the TGI [23] of the same molecule?
Its TGI is 52.9 µM.

And the TGI [24]?
Its TGI is 23.8 µM.

And the TGI [26]?
The TGI was 17.5 µM.

And the TGI [27]?
The TGI was 37.2 µM.

And the TGI [28]?
Its TGI is 72.5 µM.

What about the TGI [29] of the same molecule?
Its TGI is 24.3 µM.

And the TGI [30]?
The TGI was 75.4 µM.

And the TGI [33]?
Its TGI is 30.9 µM.

What about the TGI [36] of the same molecule?
Its TGI is 23.6 µM.

What about the TGI [38] of the same molecule?
The TGI was 20.9 µM.

What about the TGI [39] of the same molecule?
The TGI was 17.9 µM.

And the TGI [40]?
Its TGI is 30.8 µM.

And the TGI [41]?
The TGI was 35.6 µM.

And the TGI [42]?
The TGI was > 100 µM.

What about the TGI [43] of the same molecule?
Its TGI is 24.3 µM.

And the TGI [44]?
The TGI was 20.5 µM.

What about the TGI [46] of the same molecule?
The TGI was 21.8 µM.

And the TGI [47]?
Its TGI is 23.3 µM.

What about the TGI [48] of the same molecule?
The TGI was 24 µM.

What about the TGI [50] of the same molecule?
Its TGI is 25.6 µM.

And the TGI [51]?
The TGI was 26.3 µM.

And the TGI [52]?
The TGI was 66.1 µM.

What about the TGI [53] of the same molecule?
The TGI was 22.4 µM.

And the TGI [55]?
The TGI was 22 µM.

What about the TGI [56] of the same molecule?
Its TGI is 26 µM.

What about the TGI [57] of the same molecule?
Its TGI is 31.8 µM.

What about the TGI [58] of the same molecule?
The TGI was 31 µM.

What about the TGI [59] of the same molecule?
Its TGI is 32.3 µM.

What about the TGI [60] of the same molecule?
The TGI was 29.8 µM.

And the TGI [61]?
Its TGI is 40.3 µM.

And the TGI [63]?
The TGI was 26.9 µM.

And the TGI [64]?
The TGI was 26.3 µM.

And the TGI [65]?
Its TGI is 41.1 µM.

And the TGI [67]?
The TGI was 29.2 µM.

And the TGI [68]?
The TGI was 26.1 µM.
